Test results taken from patent US10689374B1, “Pyrimidine-thiazolidinone derivatives” (UNITED ARAB EMIRATES UNIVERSITY, priority 2019, dated 2020).
“Also recorded” adds a separate entry of the source. Structures can show the parent of a compound that is named as a salt.

Key:
[1] = system: β TC6 cells; experiment: In vitro glucose uptake assay; format: cell-based; conditions: each compound at a concentration of 10 μM
Description: FIG. 5A is a bar graph comparing the results of pioglitazone with compounds 130a-g, each at a concentration of 10 μM, for effect on glucose uptake from β TC6 cells.
FIG. 5B is a bar graph comparing the results of pioglitazone with compounds 112, 105a-d, 121, 117, 119, and 126, each at a concentration of 10 μM, for effect on glucose uptake from β TC6 cells.
FIG. 5C is a bar graph comparing the results of metformin with compound 138, each at a concentration of 10 μM, for effect on glucose uptake from β TC6 cells.
The results of the in vitro glucose uptake study are depicted in FIGS. 5A-5C.

[2] = system: βTC6 cells; experiment: Insulin secretion from βTC6 cells (high range insulin Sandwich ELISA kit); format: cell-based; conditions: compounds at 10^−12, 10^−9, 10^−6 M; for basal insulin secretion: absence of glucose; for glucose stimulated insulin release: presence of 2.8 mM glucose
Description: Secretion of insulin by βTC6 cells was measured using the high range insulin Sandwich ELISA kit.
Similarly, a variety of thiazolidinedione-2,4-dione-pyrimidine derivatives, at 10^−12, 10^−9, 10^−6 M concentrations, were investigated for their effect on insulin secretion in the absence and presence of 2.8 mM glucose from βTC6 cells. […] These compounds also increase insulin secretion in the presence of glucose and, thereby, prevent hyperglycemia.
The effects of rhodanine-pyrimidine derivatives 130a-g were also investigated at 10^−12, 10^−9, 10^−6 M concentrations, for effect on insulin secretion in absence and presence of 2.8 mM glucose in βTC6 cells.

| Structure (SMILES) | glucose uptake [1] | basal insulin secretion [2] | glucose stimulated insulin release [2] |
| --- | --- | --- | --- |
| CN=C1NC(=O)/C(=C\c2ccc(S(=O)(=O)[n+]3ccccc3)cc2)S1 [Compound 105a, 2-(Methylimino)-5-[4′-(N-pyridinesulfonyl)benzylidine]thiazolidin-4-one chloride salt] | most potent activity | significant decrease | significant increase |
| C/N=C1/NC(=O)/C(=C\c2ccc(S(=O)(=O)Nc3ccnc(N)n3)cc2)S1 [Compound 105b] | most potent activity | significant decrease | significant increase |
| Nc1nccc(NS(=O)(=O)c2ccc(/C=C3/SC(=O)NC3=O)cc2)n1 [Compound 105c] | most potent activity | no effect | significantly increased |
| CN=C1NC(=O)/C(=C\c2cnc(Nc3cccc4ccccc34)nc2)S1 [Compound 112] | most potent activity |  |  |
| Nc1nccc(NC(=O)CC2SC(=O)NC2=O)n1 (stereo not shown) [Compound 117, N-(2′-Aminopyrimidin-4′-yl)-2-(2″,4″-dioxothiazolidin-5″-yl)acetamide] | most potent activity | significantly inhibited |  |
| Cc1ccc(S(=O)(=O)NC(=O)Nc2nccc(NC(=O)CC3SC(=O)NC3=O)n2)cc1 (stereo not shown) [Compound 119, 2-(2′,4′-Dioxothiazolidin-5-yl)-N-[2″-(p-tosylureido)pyrimidin-4″-yl]acetamide] | most potent activity | significantly increased |  |
| Cc1cc(O)nc(NC(=O)CN2C(=O)/C(=C\c3ccc(F)cc3)SC2=S)n1 [Compound 126, (E)-2-[5′-(p-Fluorobenzylidene)-4′-oxo-2′-thioxothiazolidin-3′-yl]-N-(4″-hydroxy-6″-methyl-pyrimidin-2″-yl)acetamide] | enhancing the glucose uptake significantly (p<0.001) | significant decrease | significant increase |
| CN(C)c1ncc(/C=C2\SC(=S)NC2=O)cn1 [Compound 130a] |  | did not show any effect | did not show any effect |
| Nc1ncc(/C=C2\SC(=S)NC2=O)cn1 [Compound 130b, (Z)-5-[(2′-Aminopyrimidin-5′-yl)methylene]-2-thioxothiazolidin-4-one] |  | significantly increased |  |
| CN(C)c1ncc(/C=C2\SC(=S)N(CC(=O)O)C2=O)cn1 [Compound 130c] |  |  | significantly increased |
| CC(C)Nc1ncc(/C=C2\SC(=S)N(CC(=O)O)C2=O)cn1 [Compound 130d] |  | did not show any effect | did not show any effect |
| O=C(O)CN1C(=O)/C(=C/c2cnc(N3CCOCC3)nc2)SC1=S [Compound 130e] | most potent activity | significant increases | significant increases |
| CCCNc1ncc(/C=C2\SC(=S)N(CC(=O)O)C2=O)cn1 [Compound 130f] | most potent activity | significant increases | significant increases |
| O=C(O)CN1C(=O)/C(=C/c2cnc(NCc3ccccc3)nc2)SC1=S [Compound 130g, (Z)-2-{5′-[2″-(Benzylamino)pyrimidin-5″-yl]methylene-4′-oxo-2′-thioxothiazolidin-3′-yl}acetic acid] | most potent activity; also recorded: enhancing the glucose uptake significantly (p<0.001) |  | significantly increased |
